Source: the supplement of paper PMC11061612

Experiments:
Experiment in all cases: combination Emax (second highest fraction inhibited in the dose matrix, 72 h); higher = more inhibition; extreme values may be limits of the assay
[1] = tested on: U-266 (Plasma Cell Myeloma)
In short: (§1)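 Cell lines grown in DMEM/F12 or RPMI with 10% FBS were plated in 1536-well plates and held 24 hours at 37°C, 5% CO2 before 72 hours of exposure to two-drug dose matrices, with DMSO typically at 0.2%. CellTiter-Glo 2.0 luminescence gave viability, which was converted to inhibition. Vehicle wells were set to 0 and blank wells to 1. Combination Emax is the second-highest inhibition in the matrix, and Bliss excess is the observed combination effect minus the expected EA + EB − EA·EB, where EA and EB are the single-agent effects.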

[2] = tested on: HT-29 (Colorectal Carcinoma)
In short: as §1

[3] = tested on: HPAC (Pancreatic Carcinoma)
In short: as §1

[4] = tested on: IHH-4 (Thyroid Gland Carcinoma)
In short: as §1

[5] = tested on: SW1990 (Pancreatic Carcinoma)
In short: as §1

NCI-H2369 (Mesothelioma) = tested on: NCI-H2369 (Mesothelioma)
In short: as §1

[6] = tested on: SW1783 (Low Grade Glioma)
In short: as §1

[7] = tested on: SW756 (Cervical Carcinoma)
In short: as §1

[8] = tested on: COR-L95 (Small Cell Lung Carcinoma)
In short: as §1

[9] = tested on: SW780 (Bladder Carcinoma)
In short: as §1

[10] = tested on: COR-L23 (Non-Small Cell Lung Carcinoma)
In short: as §1

RH-1 (Ewing's Sarcoma) = tested on: RH-1 (Ewing's Sarcoma)
In short: as §1

[11] = tested on: NCI-H1694 (Small Cell Lung Carcinoma)
In short: as §1

[12] = tested on: OCI-AML2 (Acute Myeloid Leukemia)
In short: as §1

[13] = tested on: NCI-H1781 (Lung Adenocarcinoma)
In short: as §1

[14] = tested on: KM-H2 (Hodgkin's Lymphoma)
In short: as §1

[15] = tested on: SNU-C5 (Colorectal Carcinoma)
In short: as §1

[16] = tested on: TGBC24TKB (Biliary Tract Carcinoma)
In short: as §1

[17] = tested on: CFPAC-1 (Pancreatic Carcinoma)
In short: as §1

[18] = tested on: MDA-MB-157 (Breast Carcinoma)
In short: as §1

SMILES | combination Emax [14] | combination Emax [1] | combination Emax [2] | combination Emax [3] | combination Emax [4] | combination Emax [5] | combination Emax (NCI-H2369 (Mesothelioma)) | combination Emax [6] | combination Emax [7] | combination Emax [8] | combination Emax [9] | combination Emax [10] | combination Emax (RH-1 (Ewing's Sarcoma)) | combination Emax [11] | combination Emax [12] | combination Emax [13] | combination Emax [15] | combination Emax [16] | combination Emax [17] | combination Emax [18]
Cc1c2c(nn1C)CSCc1cc(n(C)n1)CSc1cc(c3ccccc3c1)OCCCc1c(C(=O)O)n(C)c3c-2c(Cl)ccc13 [AZD5991] + CC1(C)CCC(CN2CCN(c3ccc(C(=O)NS(=O)(=O)c4ccc(NCC5CCOCC5)c([N+](=O)[O-])c4)c(Oc4cnc5[nH]ccc5c4)c3)CC2)=C(c2ccc(Cl)cc2)C1 [Venetoclax] (first compound max 1 µM, 7x7, partner max 1 µM) | 0.312 | 0.97 | 0.189 | 0.244 | 0.253 | 0.164 | 0.147 | 0.444 | 0.185 | 0.914 | 0.386 | 0.164 | 0.766 | 0.988 | 1 | 0.432 | 0.204 | 0.304 | 0.143 | 0.862
CN(C)CCCOc1ccc(-c2ccc3ncc4c(c3c2)n(C2CCOCC2)c(=O)n4C)cn1 [AZD0156] + C[C@@H]1COCCN1C2=NC(=NC(=C2)C3(CC3)[S@](=N)(=O)C)C4=C5C=CNC5=NC=C4 [AZD6738] (first compound max 1 µM, 7x7, partner max 10 µM) | 0.821 | 0.523 | 0.823 | 0.761 | 0.907 | 0.552 | 0.187 | 0.257 | 0.322 | 0.525 | 0.138 | 0.687 | 0.938 | 0.711 | 0.975 | 0.346 | 0.807 | 0.796 | 0.434 | 0.914

More lines, main results first:

combination Emax [14] | SMILES | combination Emax [1] | combination Emax [2] | combination Emax [3] | combination Emax [4] | combination Emax [5] | combination Emax (NCI-H2369 (Mesothelioma)) | combination Emax [6] | combination Emax [7] | combination Emax [8] | combination Emax [9] | combination Emax [10] | combination Emax (RH-1 (Ewing's Sarcoma)) | combination Emax [11] | combination Emax [12] | combination Emax [13] | combination Emax [15] | combination Emax [16] | combination Emax [17] | combination Emax [18]
0.206 | CC1(C)CCC(CN2CCN(c3ccc(C(=O)NS(=O)(=O)c4ccc(NCC5CCOCC5)c([N+](=O)[O-])c4)c(Oc4cnc5[nH]ccc5c4)c3)CC2)=C(c2ccc(Cl)cc2)C1 [Venetoclax] + CN(C)CCCOc1ccc(-c2ccc3ncc4c(c3c2)n(C2CCOCC2)c(=O)n4C)cn1 [AZD0156] (first compound max 1 µM, 7x7, partner max 1 µM) | 0.56 | 0.233 | 0.26 | 0.129 | 0.674 | 0.194 | 0.24 | 0.158 | 0.535 | 0.212 | 0.147 | 0.221 | 0.14 | 0.993 | 0.277 | 0.185 | 0.268 | 0.342 | 0.596
0.907 | CCc1c2c(nc3ccc(O)cc13)-c1cc3c(c(=O)n1C2)COC(=O)[C@]3(O)CC [SN-38] + CN(C)CCCOc1ccc(-c2ccc3ncc4c(c3c2)n(C2CCOCC2)c(=O)n4C)cn1 [AZD0156] (first compound max 0.3 µM, 7x7, partner max 1 µM) | 0.482 | 0.89 | 0.38 | 1 | 0.525 | 0.32 | 0.748 | 0.79 | 0.789 | 0.33 | 0.686 | 1 | 0.968 | 1 | 0.99 | 0.757 | 0.533 | 0.789 | 0.742
0.11 | C[C@@H](c1ccc2nccn2c1)n1nnc2ncc(-c3cnn(C)c3)nc21 [Savolitinib] + Cc1c2c(nn1C)CSCc1cc(n(C)n1)CSc1cc(c3ccccc3c1)OCCCc1c(C(=O)O)n(C)c3c-2c(Cl)ccc13 [AZD5991] (first compound max 1 µM, 7x7, partner max 1 µM) | 0.859 | 0.142 | 0.168 | 0.0909 | 0.127 | 0.116 | 0.22 | 0.128 | 0.163 | 0.164 | 0.142 | 0.518 | 0.371 | 0.88 | 0.32 | 0.177 | 0.182 | 0.115 | 0.639
